Test results: the supplement of paper PMC8253809

Assays:
[1] = test system: HABS (astrocyte control); experiment: area under dose-response curve of % growth inhibition (log2 RLU vs DMSO / staurosporine), 1e-11 to 1e-4 M (% x log10 M); higher = more growth inhibition
In short: (§1)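 Area under the curve was derived with the trapezoid rule from a fitted log-logistic curve, switching to a smoothing spline if the sigmoid fit failed. It rested on per-plate % activity between solvent and positive controls, calculated from log2-transformed CellTiter-Glo luminescence after 7 days of exposure (3 days for iAstro) at 37 °C, 5% CO2. Patient-derived pHGG/DIPG lines and astrocytes on 1% Geltrex-coated 384-well plates received a 10-point threefold dilution series, mean top concentration 35 μM, in triplicate.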

[2] = test system: SUDIPGXVII (diffuse intrinsic pontine glioma line); experiment: as above
In short: as §1

[3] = test system: SUDIPGVI (diffuse intrinsic pontine glioma line); experiment: as above
In short: as §1

[4] = test system: DIPGX29 (H3.3 K27M diffuse intrinsic pontine glioma line); experiment: as above
In short: as §1

[5] = test system: SUDIPGIV (diffuse intrinsic pontine glioma line); experiment: as above
In short: as §1

[6] = test system: SUDIPGXXI (diffuse intrinsic pontine glioma line); experiment: as above
In short: as §1

[7] = test system: DIPGX7 (H3.3 K27M diffuse intrinsic pontine glioma line); experiment: as above
In short: as §1

[8] = test system: DIPGX37 (H3.3 K27M diffuse intrinsic pontine glioma line); experiment: as above
In short: as §1

[9] = test system: SUDIPGXIX (diffuse intrinsic pontine glioma line); experiment: as above
In short: as §1

[10] = test system: SUDIPGXIII (diffuse intrinsic pontine glioma line); experiment: as above
In short: as §1

[11] = test system: DIPGX9 (diffuse intrinsic pontine glioma line); experiment: as above
In short: as §1

[12] = test system: HGGX2 (paediatric high-grade glioma line); experiment: as above
In short: as §1

[13] = test system: HGGX39 (paediatric high-grade glioma line); experiment: as above
In short: as §1

[14] = test system: HGGX6 (H3.3 G34R paediatric high-grade glioma line); experiment: as above
In short: as §1

[15] = test system: HGGX42 (H3.3 G34R paediatric high-grade glioma line); experiment: as above
In short: as §1

[16] = test system: iAstro (astrocyte control); experiment: as above
In short: as §1

[17] = test system: HABS; experiment: EC50 (inflection of fitted growth-inhibition curve) (log10 M)
In short: (§2)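 Compounds were delivered by pin tool as a 10-point threefold dilution series with a mean top concentration of 35 μM, in triplicate, to patient-derived pHGG/DIPG cell lines and astrocyte controls growing on 1% Geltrex-coated 384-well plates. Incubation lasted 7 days, or 3 days for iAstro, at 37 °C with 5% CO2. EC50 and maximal response (yFin) come from the three- or four-parameter log-logistic fit with the lowest AICc, applied to pooled, log2-transformed CellTiter-Glo luminescence normalised per plate to % activity between solvent (negative) and positive control wells.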

[18] = test system: SUDIPGXVII; experiment: as above
In short: as §2

[19] = test system: SUDIPGVI; experiment: as above
In short: as §2

[20] = test system: DIPGX29; experiment: as above
In short: as §2

[21] = test system: SUDIPGIV; experiment: as above
In short: as §2

[22] = test system: SUDIPGXXI; experiment: as above
In short: as §2

[23] = test system: DIPGX7; experiment: as above
In short: as §2

[24] = test system: DIPGX37; experiment: as above
In short: as §2

[25] = test system: SUDIPGXIII; experiment: as above
In short: as §2

[26] = test system: DIPGX9; experiment: as above
In short: as §2

[27] = test system: HGGX2; experiment: as above
In short: as §2

[28] = test system: HGGX39; experiment: as above
In short: as §2

[29] = test system: HGGX6; experiment: as above
In short: as §2

[30] = test system: HGGX42; experiment: as above
In short: as §2

[31] = test system: iAstro; experiment: as above
In short: as §2

Structure (SMILES)	area under dose-response curve [1]	area under dose-response curve [2]	area under dose-response curve [3]	area under dose-response curve [4]	area under dose-response curve [5]	area under dose-response curve [6]	area under dose-response curve [7]	area under dose-response curve [8]	area under dose-response curve [9]	area under dose-response curve [10]	area under dose-response curve [11]	area under dose-response curve [12]	area under dose-response curve [13]	area under dose-response curve [14]	area under dose-response curve [15]	area under dose-response curve [16]	EC50 (log10 M) [17]	EC50 (log10 M) [18]	EC50 (log10 M) [19]	EC50 (log10 M) [20]	EC50 (log10 M) [21]	EC50 (log10 M) [22]	EC50 (log10 M) [23]	EC50 (log10 M) [24]	EC50 (log10 M) [25]	EC50 (log10 M) [26]	EC50 (log10 M) [27]	EC50 (log10 M) [28]	EC50 (log10 M) [29]	EC50 (log10 M) [30]	EC50 (log10 M) [31]
COC(=O)[C@]12CCC(C)(C)C[C@H]1[C@H]1C(=O)C=C3[C@@]4(C)C=C(C#N)C(=O)C(C)(C)[C@@H]4CC[C@@]3(C)[C@]1(C)CC2 [BARDOXOLONE METHYL]	174	173	155	189	201	231	221	185	207	155	185	181	185	168	203	189	-5.66	-5.59	-5.63	-6.17	-5.65	-6.24	-5.56	-6.09	-5.62	-5.73	-5.74	-6.01	-5.93	-5.83	-5.99
CCN(CC)CCNC(=O)c1c(C)[nH]c(/C=C2\C(=O)Nc3ccc(F)cc32)c1C [SUNITINIB]	122	128	124	97.9	99.2	176	123	103	135	144	129	141	100	95.1	193	113	-4.96	-4.97	-5.01	-4.95	-4.83	-5.41	-4.99	-4.77	-4.94	-5.03	-5.16	-4.77	-4.88	-5.25	-5.05
Nc1ccccc1NC(=O)c1ccc(CNc2nccc(-c3cccnc3)n2)cc1 [MOCETINOSTAT]	135	155	184	144	175	319	147	146	147	117	232	165	133	129	115	70.7	-5.43	-5.48	-5.98	-5.81	-5.43	-6.53	-5.42	-5.51	-5.46	-6.26	-5.76	-5.37	-5.51	-5.52	-5.85
OC1(c2ccc(Cl)c(C(F)(F)F)c2)CCN(CCCC(c2ccc(F)cc2)c2ccc(F)cc2)CC1 [PENFLURIDOL]	78.4	126	126	135	152	201	163	126	149	110	147	175	113	104	160	136	-4.88	-5.21	-5.28	-5.43	-5.56	-5.9	-5.6	-5.35	-5.21	-5.4	-5.63	-5.24	-5.23	-5.63	-5.63
CCCS(=O)(=O)c1nc(NC2CC2)cc(-c2ccc3c(ccn3C3CC(C)(C)NC(C)(C)C3)c2)n1 [NVS-1]	124	154	158	172	138	140	166	159	174	163	152	169	130	145	185	143	-5.42	-5.75	-5.79	-6.09	-5.52	-5.34	-5.64	-5.99	-5.49	-5.62	-5.95	-5.57	-5.83	-5.95	-5.72
CC(C)(C)OC(=O)Nc1ccc(-c2cc(C(=O)NCCCCCCC(=O)NO)no2)cc1 [BML-281]	83.1	63.9	65.9	85.5	104	212	111	56.6	87.7	54.5	146	92	94.4	55.5	49	61.4	-4.89	-5.09	-4.92	-5.53	-5.19	-6.1	-4.92	-5.46	-4.89	-5.48	-5.43	-4.94	-5.04	-5.45	-5.37
NC1CCC(Nc2cc(-c3cccc(NCc4cccc(F)c4)n3)c(Cl)cn2)CC1 (stereo unspecified) [CDK9-IN-2]	180	232	209	206	243	326	249	214	254	167	278	181	172	199	230	135	-5.73	-6.67	-6.92	-6.87	-6.76	-7.4	-6.76	-6.76	-5.75	-7.13	-5.72	-5.75	-6.96	-7	-5.35
CCNC(=O)c1noc(-c2cc(C(C)C)c(O)cc2O)c1-c1ccc(CN2CCOCC2)cc1 [NVP-AUY922]	285	218	118	204	183	318	94.5	285	274	213	294	180	275	99.4	147	118	-7.28	-7.41	-7.36	-6.44	-7.28	-6.65	-5.82	-7.47	-7.11	-7.48	-7.61	-7.42	-7.36	-7.81	-6.08
CCCCc1oc2ccc(NS(C)(=O)=O)cc2c1C(=O)c1ccc(OCCCN(CCCC)CCCC)cc1 [DRONEDARONE]	91.3	119	105	148	149	225	194	138	137	105	128	136	108	106	165	134	-4.77	-4.97	-4.87	-5.42	-5.15	-5.77	-5.35	-5.38	-4.89	-5.04	-5.19	-5.01	-5.14	-5.41	-5.29
CN1CCCN(C(=O)c2cccc(-c3ccc(/C=C4/C(=O)Nc5ccc(Cl)cc54)o3)c2)CC1 [CX-6258]	124	137	130	179	165	330	157	191	162	112	167	162	139	132	184	168	-5.1	-5.25	-5.2	-5.6	-5.37	-7.11	-5.42	-5.76	-5.08	-5.34	-5.51	-5.28	-5.24	-5.75	-5.49
CC(C)c1c2cc(-c3ccnc(NC4CCC(NC5CCOCC5)CC4)n3)ccc2nn1C (stereo unspecified)	135	263	252	222	256	319	270	225	278	249	283	198	189	210	252	91.7	-7.04	-6.93	-7	-6.63	-6.83	-7.19	-6.89	-6.77	-6.79	-7.17	-6.63	-6.34	-6.69	-7.07	-7.45
